Source: BindingDB's records for doi:10.1046/j.1472-8206.2002.00076.x (Shinshu University, 2002)
Side chains are listed from the residue outwards. Peptide text beside a SMILES is read from it. * marks the point of attachment. Nicotinoyl = O=C(c1cccnc1)*; Cbz = O=C(OCc1ccccc1)*

What was measured:
[1] = biological target: T1, Type-2 angiotensin II receptor (Rattus norvegicus, UniProt P35351)
T1 sequence (P35351 whole entry): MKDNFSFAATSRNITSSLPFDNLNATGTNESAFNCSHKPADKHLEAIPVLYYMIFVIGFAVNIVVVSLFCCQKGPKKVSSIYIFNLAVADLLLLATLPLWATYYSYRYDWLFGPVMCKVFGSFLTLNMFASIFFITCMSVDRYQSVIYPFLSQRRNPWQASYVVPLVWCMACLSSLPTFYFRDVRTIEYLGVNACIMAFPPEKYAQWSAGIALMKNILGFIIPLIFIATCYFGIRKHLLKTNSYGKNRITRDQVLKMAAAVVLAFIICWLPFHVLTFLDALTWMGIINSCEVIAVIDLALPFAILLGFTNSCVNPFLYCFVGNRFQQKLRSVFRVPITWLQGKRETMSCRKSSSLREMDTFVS

[2] = biological target: T2, Type-1 angiotensin II receptor (Homo sapiens, UniProt P30556)
T2 sequence (P30556 whole entry): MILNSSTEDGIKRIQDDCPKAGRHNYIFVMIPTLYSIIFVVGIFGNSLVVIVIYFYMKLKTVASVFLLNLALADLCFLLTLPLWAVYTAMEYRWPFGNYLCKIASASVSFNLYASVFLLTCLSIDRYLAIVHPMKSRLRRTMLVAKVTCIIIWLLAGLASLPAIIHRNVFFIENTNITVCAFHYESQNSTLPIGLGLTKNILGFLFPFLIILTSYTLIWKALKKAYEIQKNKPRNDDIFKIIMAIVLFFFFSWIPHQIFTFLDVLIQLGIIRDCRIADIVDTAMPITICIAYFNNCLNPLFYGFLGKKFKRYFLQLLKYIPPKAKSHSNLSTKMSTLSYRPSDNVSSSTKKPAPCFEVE

[3] = biological target: T3, Type-1 angiotensin II receptor A (Rattus norvegicus, UniProt P25095)
T3 sequence (P25095 whole entry): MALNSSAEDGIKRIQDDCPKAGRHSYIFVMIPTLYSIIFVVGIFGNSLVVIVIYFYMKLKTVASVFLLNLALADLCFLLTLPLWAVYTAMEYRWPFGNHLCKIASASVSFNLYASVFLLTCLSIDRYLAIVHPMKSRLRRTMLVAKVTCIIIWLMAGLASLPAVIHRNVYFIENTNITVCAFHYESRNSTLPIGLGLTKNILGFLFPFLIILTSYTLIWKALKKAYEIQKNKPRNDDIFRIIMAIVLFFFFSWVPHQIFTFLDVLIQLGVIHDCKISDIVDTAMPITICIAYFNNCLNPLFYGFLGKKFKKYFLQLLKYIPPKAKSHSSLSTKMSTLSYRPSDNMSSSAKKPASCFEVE

[4] = biological target: T4, Type-1 angiotensin II receptor B (Rattus norvegicus, UniProt P29089)
T4 sequence (P29089 whole entry): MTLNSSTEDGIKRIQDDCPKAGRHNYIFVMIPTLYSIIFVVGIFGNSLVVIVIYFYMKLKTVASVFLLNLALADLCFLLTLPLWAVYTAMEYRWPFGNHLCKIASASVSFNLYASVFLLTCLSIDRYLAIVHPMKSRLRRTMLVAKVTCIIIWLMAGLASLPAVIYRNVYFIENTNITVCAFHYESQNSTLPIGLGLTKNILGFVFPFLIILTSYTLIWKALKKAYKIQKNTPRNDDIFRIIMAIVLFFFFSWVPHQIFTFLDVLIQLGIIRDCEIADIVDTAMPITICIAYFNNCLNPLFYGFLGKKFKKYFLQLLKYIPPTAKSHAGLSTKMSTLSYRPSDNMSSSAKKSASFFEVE

Row | Ki [1] [nM] | Ki [2] [nM] | Ki [3] [nM] | Ki [4] [nM] | SMILES
1 | > 10000 | 0.17 | 0.12 | 0.12 | CCOc1nc2cccc(C(=O)O)c2n1Cc1ccc(-c2ccccc2-c2nnn[nH]2)cc1
2 | > 10000 | – | 0.57 | – | CCCCc1nc(Cl)c(C(=O)O)n1Cc1ccc(-c2ccccc2-c2nn[nH]n2)cc1 [2-Butyl-5-chloro-3-[2'-(1H-tetrazol-5-yl)-biphenyl-4-ylmethyl]-3H-imidazole-4-carboxylic acid]
3 | 9360 | 1.24 | 1.02 | 0.67 | CCc1nn(Cc2ccc(-c3ccccc3-c3nnn[nH]3)cc2)c(=NC(=O)C2=C(C(=O)O)CCC2)s1 [KRH-594]
4 | 0.37 | – | – | – | CC[C@H](C)[C@H](NC(=O)[C@@H]1CCCN1C(=O)[C@H](Cc1c[nH]cn1)NC(=O)[C@H](CCCCNC(=O)[C@H](CCCN=C(N)N)NC(=O)OCc1ccccc1)NC(=O)[C@H](Cc1ccc(O)cc1)NC(=O)c1cccnc1)C(=O)O [NSC_123794] (Nicotinoyl-YK([Arg-Cbz])HPI-OH)
